This is an account of results in patent publication US20240043435A1, “TYK-2 INHIBITOR” (BEIGENE, LTD., priority 2020, published 2024).

The test system of test [1] is pSTAT5/GM-CSF. Description: pSTAT5/GM-CSF cellular assay (JAK2 selectivity). The test is classed as cell-based. As to conditions: for Selectivity fold (TYK2/JAK2): pSTAT5/GM-CSF IC50 over pSTAT4/IL-12 IC50.
The target in test [2] is T1, TYK2-JH2 (aa 575-869, in-house) protein (Homo sapiens, UniProt P29597).
T1 construct: TYK2-JH2 (aa 575-869, in-house) protein; made in house
Description: TYK2-JH2 biochemical assay (HTRF probe displacement). The test is classed as binding. As to conditions: Biochemical assay; read-out: TYK2-JH2 IC50. Summed up:
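Recombinant TYK2-JH2 (0.2 nM) was pre-incubated 0.5 h at room temperature with compounds (10 doses, 5-fold dilution; 500× DMSO stocks from 500 uM) in 20 mM HEPES pH 7.5, 10 mM MgCl2, 0.005% BSA, 2 mM DTT, 0.015% Brij-35. Probe displacement was read by HTRF (ex337, em620/665 nm); IC50 from four-parameter logistic fit.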

The subject of test [3] is JAK2, TYK2/p-STAT4 (Tyr693) activated by IL-12 in NK-92 cell line. Description: IL-12-JAK2, TYK2/p-STAT4 (Tyr693) inhibition IC50 cellular assay. The test is classed as cell-based. As to conditions: for IC50: NK92, Cellular assay, read-out: pSTAT4/IL-12 IC50; for Selectivity fold (TYK2/JAK2): Cellular assay, pSTAT5/GM-CSF IC50 vs pSTAT4/IL-12 IC50. Summed up: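 NK-92 cells were starved overnight without IL-2 and preincubated 1 h at 37° C with compound (8 doses, 10000–0.61 nM, 4-fold, 0.2% DMSO). They were then stimulated with IL-12 (40 ng/ml final) for 30 min. Lysate p-STAT4 (Tyr693) was read by AlphaLISA SureFire; IC50 from four-parameter logistic fit.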

Where only a bound is given, the exact number is not on record here.

T1 sequence (P29597 575-869): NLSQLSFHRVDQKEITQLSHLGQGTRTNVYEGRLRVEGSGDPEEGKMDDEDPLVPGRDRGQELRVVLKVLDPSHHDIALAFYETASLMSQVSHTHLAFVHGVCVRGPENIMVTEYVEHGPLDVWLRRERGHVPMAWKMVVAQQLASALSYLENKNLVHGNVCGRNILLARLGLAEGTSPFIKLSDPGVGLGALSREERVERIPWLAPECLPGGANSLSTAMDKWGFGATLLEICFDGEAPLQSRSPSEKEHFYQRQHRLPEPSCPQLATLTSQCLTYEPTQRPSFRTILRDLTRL

Turning to `CC(=O)Nc1cc(Nc2cc(OCC(O)CO)cc(S(C)(=O)=O)n2)c(-c2ccn(C)n2)cn1` (stereo not shown) [Example J48, N-(4-((4-(2,3-dihydroxypropoxy)-6-(methylsulfonyl)pyridin-2-yl)amino)-5-(1-methyl-1H-pyrazol-3-yl)pyridin-2-yl)acetamide], the IC50 in test [1] was over 10000 nM; in test [2], 0.035 nM; in test [3], 70.2 nM. The “Selectivity fold (TYK2/JAK2)” value in test [1] is listed as over 1421411 fold.

`COCCOc1cc(Nc2cc(NC(C)=O)ncc2-c2ccc(C(C)(C)O)cn2)cc(S(C)(=O)=O)c1` [Example H15, N-(5-(2-hydroxypropan-2-yl)-4′-((3-(2-methoxyethoxy)-5-(methylsulfonyl)phenyl)amino)-[2,3′-bipyridin]-6′-yl)acetamide]: the values for the IC50 in test [1], in test [2] and in test [3] were over 10000 nM, 0.029 nM and 4.89 nM, respectively. In addition, in test [3], the “Selectivity fold (TYK2/JAK2)” value was over 2044 fold.

With `CC(=O)Nc1cc(Nc2cc(N3CCOC[C@@H]3C)cc(S(C)(=O)=O)n2)c(-c2ccc(N3C[C@@H](C)O[C@@H](C)C3)cn2)cn1` [Example C23, N-(5-(cis-2,6-dimethylmorpholino)-4′-((4-((S)-3-methylmorpholino)-6-(methylsulfon-yl)pyridin-2-yl)amino)-[2,3′-bipyridin]-6′-yl)ace-tamide], the IC50 in test [1] turned out to be 2600 nM; in test [2], 0.022 nM; in test [3] it was 0.63 nM. In addition, the “Selectivity fold (TYK2/JAK2)” value in test [3] is 4126 fold.

As for `CC(=O)Nc1cc(Nc2cccc(S(C)(=O)=O)c2)c(-c2ccn(C)n2)cn1` [Example J6, N-(5-(1-methyl-1H-pyrazol-3-yl)-4-((3-(methylsulfonyl)phenyl)amino)pyridin-2-yl)acetamide], the IC50 in test [1] was over 10000 nM; in test [2] it was 0.033 nM; in test [3], 7.94 nM. Moreover, in test [1], the “Selectivity fold (TYK2/JAK2)” value is over 1259 fold.

Regarding `CCn1ccc(-c2cnc(NC(C)=O)cc2Nc2cccc(S(C)(=O)=O)n2)n1` [Example M5, N-(5-(1-ethyl-1H-pyrazol-3-yl)-4-((6-(methylsulfonyl)pyridin-2-yl)amino)pyridin-2-yl)acetamide], the IC50 in test [1] stood at 1550 nM; in test [2], 0.032 nM; in test [3] it was 0.189 nM. For the same molecule, the “Selectivity fold (TYK2/JAK2)” value in test [1] worked out at 8206 fold.

On to `CC(=O)Nc1cc(Nc2cc(OCCO)cc(S(C)(=O)=O)n2)c(-c2ccccn2)cn1` [Example B7, N-(4′-((4-(2-hydroxyethoxy)-6-(methylsulfonyl)pyridin-2-yl)amino)-[2,3′-bipyridin]-6′-yl)acetamide], for which the IC50 in test [1] was over 10000 nM; in test [2] it was 0.016 nM; in test [3] it was 5.58 nM. Besides, the “Selectivity fold (TYK2/JAK2)” value in test [3] is given as over 1792 fold.

For `CC(=O)Nc1cc(Nc2cc(OC(C)C)cc(S(C)(=O)=O)n2)c(-c2ccn(C3CC3)n2)cn1` [Example M2, N-(5-(1-cyclopropyl-1H-pyrazol-3-yl)-4-((4-isopropoxy-6-(methylsulfonyl)pyridin-2-yl)amino)pyridin-2-yl)acetamide], the IC50 in test [1] was over 10000 nM; in test [2], 0.032 nM; in test [3], 1.04 nM. Besides, in test [1], the “Selectivity fold (TYK2/JAK2)” value is recorded as over 9615 fold.

Regarding `CC(=O)Nc1cc(Nc2cc(F)cc(S(C)(=O)=O)c2)c(-c2ccc(C(C)(C)O)cn2)cn1` [Example H19, N-(4′-((3-fluoro-5-(methylsulfonyl)phenyl)amino)-5-(2-hydroxypropan-2-yl)-[2,3′-bipyridin]-6′-yl)acetamide], the IC50 was over 10000 nM in test [1], 0.028 nM in test [2] and 3.2 nM in test [3]. The “Selectivity fold (TYK2/JAK2)” value in test [3] is listed as over 3125 fold.

As for `CC(=O)Nc1cc(Nc2cc(C3CCCOC3)cc(S(C)(=O)=O)n2)c(-c2ccc3c(n2)OCC(C)(C)O3)cn1` (stereo not shown) [Example Q75, N-(5-(2,2-dimethyl-2,3-dihydro-[1,4]dioxino[2,3-b]pyridin-6-yl)-4-((6-(methylsulfonyl)-4-(tetrahydro-2H-pyran-3-yl)pyridin-2-yl)amino)pyridin-2-yl)acetamide], the figures for the IC50 in test [1], in test [2] and in test [3] were 473 nM, 0.024 nM and 0.637 nM, respectively. In test [1], the “Selectivity fold (TYK2/JAK2)” value turned out to be 742 fold.

`CC(=O)Nc1cc(Nc2cc(C)cc(S(C)(=O)=O)c2)c(-c2ccc(C(C)(C)O)cn2)cn1` [Example H21, N-(5-(2-hydroxypropan-2-yl)-4′-((3-methyl-5-(methylsulfonyl)phenyl)amino)-[2,3′-bipyridin]-6′-yl)acetamide]: the IC50 was over 10000 nM in test [1], 0.024 nM in test [2] and 2.24 nM in test [3]. Further, the “Selectivity fold (TYK2/JAK2)” value in test [3] is over 4464 fold.

In the case of `CC(=O)Nc1cc(Nc2cc(OCCO)cc(S(C)(=O)=O)n2)c(-c2ccc(C(C)(C)O)cn2)cn1` [Example H8, N-(4′-((4-(2-hydroxyethoxy)-6-(methylsulfonyl)pyridin-2-yl)amino)-5-(2-hydroxypropan-2-yl)-[2,3′-bipyridin]-6′-yl)acetamide], the IC50 in test [1] is over 10000 nM; in test [2], 0.041 nM; in test [3], 21.7 nM. In test [3], the “Selectivity fold (TYK2/JAK2)” value is given as over 461 fold.

As to `CC(=O)Nc1cc(Nc2nc(S(C)(=O)=O)ccc2C)c(-c2ccn(C)n2)cn1` [Example J27, N-(5-(1-methyl-1H-pyrazol-3-yl)-4-((3-methyl-6-(methylsulfonyl)pyridin-2-yl)amino)pyridin-2-yl)acetamide], the figures for the IC50 in test [1], in test [2] and in test [3] were over 10000 nM, 0.04 nM and 0.439 nM, respectively. Also, the “Selectivity fold (TYK2/JAK2)” value in test [1] was over 22779 fold.

Take `CC(=O)Nc1cc(Nc2cc(-c3cnccc3C#N)cc(S(C)(=O)=O)n2)c(-c2ccc3c(n2)OCC(C)(C)O3)cn1` [Example Q115, N-(4-((4-cyano-6′-(methyslulfonyl)-[3,4′-bipyridin]-2′-yl)amino)-5-(2,2-dimethyl-2,3-dihydro-[1,4]dioxino[2,3-b]pyridin-6-yl)pyridin-2-yl)acetamide]: the IC50 in test [1] is over 10000 nM; in test [2], 0.034 nM; in test [3], 0.302 nM. Moreover, the “Selectivity fold (TYK2/JAK2)” value in test [1] was over 33112 fold.

For `CC(=O)Nc1cc(Nc2ccc(C)c(S(C)(=O)=O)n2)c(-c2ccn(C)n2)cn1` [Example J51, N-(5-(1-methyl-1H-pyrazol-3-yl)-4-((5-methyl-6-(methylsulfonyl)pyridin-2-yl)amino)pyridin-2-yl)acetamide], the IC50 in test [1] is over 10000 nM; in test [2] it was 0.043 nM; in test [3], 1.58 nM. In addition, the “Selectivity fold (TYK2/JAK2)” value in test [1] is over 6329 fold.

Regarding `CC[C@H](C)Oc1cc(Nc2cc(NC(C)=O)ncc2-c2ccn(C)n2)nc(S(C)(=O)=O)c1` [Example J60, (S)-N-(4-((4-(sec-butoxy)-6-(methylsulfonyl)pyridin-2-yl)amino)-5-(1-methyl-1H-pyrazol-3-yl)pyridin-2-yl)acetamide], the IC50 in test [1] is over 10000 nM; in test [2], 0.021 nM; in test [3], 0.797 nM. Besides, the “Selectivity fold (TYK2/JAK2)” value in test [1] was over 12547 fold.

`CC(=O)Nc1cc(Nc2cccc(S(C)(=O)=O)n2)c(-c2cccnn2)cn1` [Example A24, N-(4-((6-(methylsulfonyl)pyridin-2-yl)amino)-5-(pyridazin-3-yl)pyridin-2-yl)acetamide]: the results for the IC50 in test [1], in test [2] and in test [3] were over 10000 nM, 0.027 nM and 1.85 nM, respectively. Also, the “Selectivity fold (TYK2/JAK2)” value in test [3] is over 5405 fold.
